The record followed here is ChEMBL document CHEMBL4680328, “Design, synthesis and evaluation of PD-L1 peptide antagonists as new anticancer agents for immunotherapy” (Bioorg Med Chem, 2021).

Series [1] deals with T1, Programmed cell death 1 ligand 1 (Homo sapiens, UniProt Q9NZQ7). Nature of the series: Antagonist activity at human PDL1 assessed as inhibition of human PD1 interaction with human PDL1 by ELISA.
For series [2], the target named is T1, Programmed cell death 1 ligand 1. The experiment in a line: Antagonist activity at PDL1 overexpressing in IFN-gamma pretreated human LoVo cells assessed as restoration of human Jurkat T cell activation by measuring induction of IL-2 production at 10 ug/ml incubated for 24 hrs by ELISA. The conditions noted are these: filed as antagonist, dose 10.0 µg/ml. (In general: In an ELISA, binding on a coated surface is turned into a signal by an enzyme label.)

The subject of series [3] is CT26. Nature of the series: Antitumor activity against mouse CT26 cells xenografted in BALB/c mouse assessed as reduction in tumor growth at 10 mg/kg, ip administered for 7 days and measured on day 7 by caliper analysis. It is filed as functional, organism-based. The note with it: time 7.0 day.
A short description of series [4]: Toxicity in BALB/c mouse xenografted with mouse CT26 cells assessed as reduction in body weight at 10 mg/kg, ip administered for 7 days and measured on day 7. It is filed as organism-based. The conditions noted are these: in vivo, 168 h, time 7 day.
For series [5], the system named is CT26. The experiment in a line: Antitumor activity against mouse CT26 cells assessed as reduction in cell viability at 10 to 100 ug/ml incubated for 24 to 72 hrs by MTT assay. It is filed as functional, cell-based. The conditions noted are these: dose 10-100 µg/ml, time 24-72 hrs. A general note: Tetrazolium dyes change colour on reduction, which living cells bring about.

The nature of series [6]: Toxicity in BALB/c mouse xenografted with mouse CT26 cells assessed as effect on spleen damage at 10 mg/kg, ip administered for 7 days and measured on day 7 by hematoxylin and eosin staining based assay. It is filed as organism-based. The conditions noted are these: in vivo, 168 h, time 7 day.
Series [7] can be described thus: Toxicity in BALB/c mouse xenografted with mouse CT26 cells assessed as effect on kidney damage at 10 mg/kg, ip administered for 7 days and measured on day 7 by hematoxylin and eosin staining based assay. It is filed as organism-based. The note with it: in vivo, 168 h, time 7 day.
The nature of series [8]: Toxicity in BALB/c mouse xenografted with mouse CT26 cells assessed as GPT level in blood at 10 mg/kg, ip administered for 7 days and measured on day 7 (reference value: 50 +/- 7 U/L). It is filed as organism-based. The conditions noted are these: in vivo, 168 h, time 7 day.
Series [9] in a line: Toxicity in BALB/c mouse xenografted with mouse CT26 cells assessed as GOT level in blood at 10 mg/kg, ip administered for 7 days and measured on day 7 (reference value: 93 +/- 8 U/L). It is filed as organism-based. The conditions noted are these: in vivo, 168 h, time 7 day.
Series [10] in a line: Toxicity in BALB/c mouse xenografted with mouse CT26 cells assessed as BUN level in blood at 10 mg/kg, ip administered for 7 days and measured on day 7 (reference value: 76 +/- 5 mg/dl). The conditions noted are these: in vivo, 168 h, time 7 day. It is filed as organism-based.
Series [11] in a line: Toxicity in BALB/c mouse xenografted with mouse CT26 cells assessed as effect on liver damage at 10 mg/kg, ip administered for 7 days and measured on day 7 by hematoxylin and eosin staining based assay. It is filed as organism-based. The conditions noted are these: in vivo, 168 h, time 7 day.

pIC50: −log10 of the molar value. Activity calls are given as the source filed them. The calls are words filed in the database; no cut-off is given here.

T1 sequence (Q9NZQ7 whole entry): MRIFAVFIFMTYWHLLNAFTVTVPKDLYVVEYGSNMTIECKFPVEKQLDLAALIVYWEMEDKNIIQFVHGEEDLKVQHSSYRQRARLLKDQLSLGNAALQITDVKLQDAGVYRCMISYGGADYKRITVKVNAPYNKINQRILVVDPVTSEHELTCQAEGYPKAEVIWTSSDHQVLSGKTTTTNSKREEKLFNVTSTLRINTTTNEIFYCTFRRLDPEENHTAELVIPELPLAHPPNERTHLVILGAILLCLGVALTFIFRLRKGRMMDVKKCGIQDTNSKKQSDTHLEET

H-CGAISLAPKAQIKES-OH: the pIC50 (as a rule, the negative decadic logarithm of the IC50, by convention in mol/L) in series [1] is 4.72.
Regarding `CC[C@H](C)[C@H](NC(=O)[C@H](C)NC(=O)CN)C(=O)N[C@@H](CO)C(=O)N[C@@H](CC(C)C)C(=O)N[C@@H](C)C(=O)N1CCC[C@H]1C(=O)N[C@@H](CCCCN)C(=O)N[C@@H](CC(C)C)C(=O)N[C@@H](CCC(N)=O)C(=O)N[C@H](C(=O)N[C@@H](CC(N)=O)C(=O)N[C@@H](CCC(=O)O)C(=O)O)[C@@H](C)CC`, the pIC50 in [1] is 5.25. In series [2], the IL-2 induction activity entry was “Active”. Also, in the series on CT26 [3], the TGI result is “inactive”. Further, the Activity result in [4] is listed as “Non-Toxic”. In the series with CT26 [5], the result was inactive.
In the case of H-GAISLAPKLQIND-OH, in series [1], the pIC50 was 5.36. Further, the IL-2 induction activity result in series [2] was “Active”. For the same compound, the TGI entry with CT26 [3] is “inactive”. The Activity result in series [4] is “Non-Toxic”. Moreover, in the series on CT26 [5], the outcome was inactive.
H-CGAISLAPKLQINES-OH: in series [1], the pIC50 was 4.09.
With `CC[C@H](C)[C@@H]1NC(=O)[C@H](C)NC(=O)CNC(=O)CNC(=O)[C@@H](CCC(=O)O)NC(=O)[C@H](CC(N)=O)NC(=O)[C@H]([C@@H](C)CC)NC(=O)[C@H](CCC(N)=O)NC(=O)[C@H](CC(C)C)NC(=O)[C@H](CCCCN)NC(=O)[C@@H]2CCCN2C(=O)[C@H](C)NC(=O)[C@H](CC(C)C)NC(=O)[C@H](CO)NC1=O`, the Activity entry in series [6] was “Non-Toxic”; in [7], “Non-Toxic”; in [8], 51 U/L; in [9], 97 U/L; in [10], 81 mg/dL; in [11] it was “Non-Toxic”. The Activity entry in [4] is on record as “Non-Toxic”. Further, the pIC50 in series [1] was 6.15. The IL-2 induction activity entry in [2] is “Active”. Moreover, in the series with CT26 [3], the TGI entry is “Active”. Also, the outcome in the series with CT26 [5] was inactive.
`CC[C@H](C)[C@H](NC(=O)[C@H](C)NC(=O)CN)C(=O)N[C@@H](CO)C(=O)N[C@@H](CC(C)C)C(=O)N[C@@H](C)C(=O)N1CCC[C@H]1C(=O)N[C@@H](CCCCN)C(=O)N[C@@H](CC(C)C)C(=O)N[C@@H](CCC(N)=O)C(=O)N[C@H](C(=O)N[C@@H](CC(N)=O)C(=O)N[C@H](CCC(=O)O)C(=O)O)[C@@H](C)CC`: the Activity result in [6] is “Non-Toxic”; in [7], “Non-Toxic”; in [8], 54 U/L; in series [9] it was 82 U/L; in series [10] it was 69 mg/dL; in series [11] it was “Non-Toxic”. Further, the Activity result in series [4] is reported as “Non-Toxic”. The pIC50 in series [1] is 5.81. For the same compound, in series [2], the IL-2 induction activity entry was “Active”. Further, in the series with CT26 [3], the TGI result was “Active”. Further, in the series with CT26 [5], the outcome was inactive.
Turning to H-CGAISLAPKLQIKES-OH, the pIC50 in series [1] was 4.03.
